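Interpolation was linear, between the two tested concentrations surrounding the appropriate level; five concentrations were tested over 48 hours in 96-well plates. At the GI50, growth is halved.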 The source made the active and inactive calls. Rule as the data show it: active = GI50 up to about 1.1 µM and inactive = higher.
Columns and labels:
Test in all cases: DTP human tumour cell line panel, 48 h
[1] = tested on: MDA-N
[2] = tested on: HOP-92
[3] = tested on: 786-0
[4] = tested on: SK-MEL-2
[5] = tested on: OVCAR-5
[6] = tested on: NCI/ADR-RES
[7] = tested on: HOP-62
[8] = tested on: UACC-62
[9] = tested on: HCT-15
[10] = tested on: NCI-H522
[11] = tested on: OVCAR-3
[12] = tested on: HL-60
[13] = tested on: SW-620
[14] = tested on: EKVX
[15] = tested on: RXF 393
[16] = tested on: SNB-19
[17] = tested on: SN12C
[18] = tested on: PC-3
[19] = tested on: M14
[20] = tested on: CAKI-1
[21] = tested on: TK-10
[22] = tested on: COLO 205
[23] = tested on: IGROV-1
[24] = tested on: Hs-578T
[25] = tested on: OVCAR-4
[26] = tested on: T47D
[27] = tested on: CCRF-CEM
[28] = tested on: SK-MEL-28
[29] = tested on: OVCAR-8
[30] = tested on: MOLT-4
[31] = tested on: SNB-75
[32] = tested on: K562
[33] = tested on: MCF7
[34] = tested on: Malme-3M
[35] = tested on: SF-295
[36] = tested on: UO-31
[37] = tested on: KM12
[38] = tested on: SF-539
[39] = tested on: SF-268
[40] = tested on: SK-MEL-5
[41] = tested on: SK-OV-3
[42] = tested on: A549
[43] = tested on: HCC 2998
[44] = tested on: HT-29
[45] = tested on: LOX IMVI
[46] = tested on: U-251
[47] = tested on: A498
[48] = tested on: MDA-MB-231
[49] = tested on: NCI-H23
[50] = tested on: DU-145
[51] = tested on: BT-549
[52] = tested on: UACC-257
[53] = tested on: ACHN
[54] = tested on: HCT-116
[55] = tested on: NCI-H460
[56] = tested on: NCI-H226
[57] = tested on: MDA-MB-435
[58] = tested on: RPMI-8226
[59] = tested on: SR

`COC(=O)c1cc(OC)c(OC)c(OC)c1-c1cc2c(cc1C=O)OCO2` was tested, and the GI50 [1] was > 10 µM (inactive), the GI50 [2] was > 10 µM (inactive) and the GI50 [3] was > 10 µM (inactive). For the same molecule, the GI50 [4] was > 10 µM (inactive), the GI50 [5] was > 10 µM (inactive) and the GI50 [6] was > 10 µM (inactive). The GI50 [7] was > 10 µM (inactive), the GI50 [8] was > 10 µM (inactive) and the GI50 [9] was greater than 10 µM. The GI50 [10] was > 10 µM (inactive), the GI50 [11] was > 10 µM (inactive) and the GI50 [12] was > 10 µM (inactive). For the same molecule, the GI50 [13] was > 10 µM (inactive), the GI50 [14] was > 10 µM (inactive) and the GI50 [15] was > 10 µM (inactive). For the same molecule, the GI50 [16] was > 10 µM (inactive), the GI50 [17] was > 10 µM (inactive) and the GI50 [18] was > 10 µM (inactive). The GI50 [19] was > 10 µM (inactive), the GI50 [20] was > 10 µM (inactive) and the GI50 [21] was > 10 µM (inactive). For the same molecule, the GI50 [22] was > 10 µM (inactive), the GI50 [23] was > 10 µM (inactive) and the GI50 [24] was > 10 µM (inactive). For the same molecule, the GI50 [25] was > 10 µM (inactive), the GI50 [26] was > 10 µM (inactive) and the GI50 [27] was > 10 µM (inactive). For the same molecule, the GI50 [28] was > 10 µM (inactive), the GI50 [29] was > 10 µM (inactive) and the GI50 [30] was > 10 µM (inactive). The GI50 [31] was > 10 µM (inactive), the GI50 [32] was > 10 µM (inactive) and the GI50 [33] was > 10 µM (inactive). The GI50 [34] was > 10 µM (inactive), the GI50 [35] was > 10 µM (inactive) and the GI50 [36] was > 10 µM (inactive). The GI50 [37] was > 10 µM (inactive), the GI50 [38] was > 10 µM (inactive) and the GI50 [39] was > 10 µM (inactive). For the same molecule, the GI50 [40] was > 10 µM (inactive), the GI50 [41] was > 10 µM (inactive) and the GI50 [42] was > 10 µM (inactive). The GI50 [43] was > 10 µM (inactive), the GI50 [44] was > 10 µM (inactive) and the GI50 [45] was > 10 µM (inactive). The GI50 [46] was > 10 µM (inactive), the GI50 [47] was > 10 µM (inactive) and the GI50 [48] was > 10 µM (inactive). The GI50 [49] was > 10 µM (inactive), the GI50 [50] was > 10 µM (inactive) and the GI50 [51] was > 10 µM (inactive). The GI50 [52] was > 10 µM (inactive), the GI50 [53] was > 10 µM (inactive) and the GI50 [54] was > 10 µM (inactive). The GI50 [55] was > 10 µM (inactive), the GI50 [56] was > 10 µM (inactive) and the GI50 [57] was > 10 µM (inactive). The GI50 [58] was > 10 µM (inactive).

For `Oc1ccc2ccccc2c1/N=N/c1ccc(Br)cc1`, the GI50 [1] was > 100 µM (inactive), the GI50 [2] was 35.3 µM (inactive) and the GI50 [3] was > 100 µM (inactive). For the same molecule, the GI50 [4] was > 100 µM (inactive), the GI50 [5] was 63 µM (inactive) and the GI50 [6] was > 100 µM (inactive). For the same molecule, the GI50 [7] was 21 µM (inactive), the GI50 [8] was > 100 µM (inactive) and the GI50 [9] was greater than 100 µM. The GI50 [10] was > 100 µM (inactive), the GI50 [11] was 86.9 µM (inactive) and the GI50 [12] was > 100 µM (inactive). For the same molecule, the GI50 [13] was > 100 µM (inactive), the GI50 [14] was 36.2 µM (inactive) and the GI50 [15] was > 100 µM (inactive). The GI50 [16] was > 100 µM (inactive), the GI50 [17] was > 100 µM (inactive) and the GI50 [18] was > 100 µM (inactive). The GI50 [19] was 87.5 µM (inactive), the GI50 [20] was > 100 µM (inactive) and the GI50 [21] was 59.6 µM (inactive). The GI50 [22] was > 100 µM (inactive), the GI50 [23] was 36.1 µM (inactive) and the GI50 [24] was 24.7 µM (inactive). For the same molecule, the GI50 [25] was 27.8 µM (inactive), the GI50 [26] was > 100 µM (inactive) and the GI50 [27] was > 100 µM (inactive). The GI50 [28] was > 100 µM (inactive), the GI50 [29] was > 100 µM (inactive) and the GI50 [30] was > 100 µM (inactive). For the same molecule, the GI50 [31] was 95.5 µM (inactive), the GI50 [32] was > 100 µM (inactive) and the GI50 [34] was 66.1 µM (inactive). The GI50 [35] was 28.9 µM (inactive), the GI50 [36] was > 100 µM (inactive) and the GI50 [37] was 77.6 µM (inactive). The GI50 [39] was 23.6 µM (inactive), the GI50 [40] was > 100 µM (inactive) and the GI50 [41] was 17.4 µM (inactive). The GI50 [42] was > 100 µM (inactive), the GI50 [44] was > 100 µM (inactive) and the GI50 [45] was > 100 µM (inactive). For the same molecule, the GI50 [46] was > 100 µM (inactive), the GI50 [48] was > 100 µM (inactive) and the GI50 [49] was > 100 µM (inactive). For the same molecule, the GI50 [50] was > 100 µM (inactive), the GI50 [59] was > 100 µM (inactive) and the GI50 [51] was > 100 µM (inactive). The GI50 [52] was > 100 µM (inactive), the GI50 [53] was 89.1 µM (inactive) and the GI50 [54] was > 100 µM (inactive). The GI50 [56] was 66.7 µM (inactive), the GI50 [57] was > 100 µM (inactive) and the GI50 [58] was > 100 µM (inactive).
